*1 amine or outer side, *2 acyl side, *3 side chain or, on linkers, in order; H or OH if unused. Where a SMILES comes first, the peptide text is derived from it. Bridges are numbered along the chain shown (N, C = ends). Side-chain parts run from the residue outwards. [ ]: non-standard residue; d: D form. The star is where a group is joined. X5 = NC(=O)[C@H](CCCCNC(=O)CN1CCN(CC(=O)O)CCN(CC(=O)O)CCN(CC(=O)O)CC1)NC(=O)CCC(=O)NCCCOCCOCCOCCCN*; DOTA(Ga) = O=C1CN2CCN3CCN(CC(=O)*)CCN(CC2)CC(=O)[O][Ga]([O]1)[O]C(=O)C3; DOTA(Lu) = O=C1CN2CCN3CCN(CC(=O)*)CCN(CC2)CC(=O)[O][Lu]([O]1)[O]C(=O)C3; NH(1-deoxy-D-glucityl) = OC[C@@H](O)[C@@H](O)[C@H](O)[C@@H](O)CN*; DOTA = O=C(O)CN1CCN(CC(=O)O)CCN(CC(=O)*)CCN(CC(=O)O)CC1; Trp(5-Cl) = N[C@@H](Cc1c[nH]c2ccc(Cl)cc12)C(=O)O; Pyridine(2,6-diCH2) = c1cc(C[*:1])nc(C[*:2])c1; Pro(4R-NH2) = N[C@H]1CN[C@H](C(=O)O)C1; 1Nal = N[C@@H](Cc1cccc2ccccc12)C(=O)O; mXylylene = c1cc(C[*:1])cc(C[*:2])c1; Bta = N[C@@H](Cc1csc2ccccc12)C(=O)O; Glutaryl = O=C(CCCC(=O)[*:2])[*:1]; Hyp = O=C(O)[C@@H]1C[C@@H](O)CN1; X1 = O=C(CN1CCC(N[*:1])CC1)[*:2]; Suc = O=C(CCC(=O)[*:2])[*:1]; Api = NC1(C(=O)O)CCNCC1; Aib = CC(C)(N)C(=O)O
Target: T1, GIPR (CHO-K1-hGIPR cells) (Homo sapiens, UniProt P48546)
T1 construct: host or cells: CHO-K1
T1 sequence (P48546 22-466): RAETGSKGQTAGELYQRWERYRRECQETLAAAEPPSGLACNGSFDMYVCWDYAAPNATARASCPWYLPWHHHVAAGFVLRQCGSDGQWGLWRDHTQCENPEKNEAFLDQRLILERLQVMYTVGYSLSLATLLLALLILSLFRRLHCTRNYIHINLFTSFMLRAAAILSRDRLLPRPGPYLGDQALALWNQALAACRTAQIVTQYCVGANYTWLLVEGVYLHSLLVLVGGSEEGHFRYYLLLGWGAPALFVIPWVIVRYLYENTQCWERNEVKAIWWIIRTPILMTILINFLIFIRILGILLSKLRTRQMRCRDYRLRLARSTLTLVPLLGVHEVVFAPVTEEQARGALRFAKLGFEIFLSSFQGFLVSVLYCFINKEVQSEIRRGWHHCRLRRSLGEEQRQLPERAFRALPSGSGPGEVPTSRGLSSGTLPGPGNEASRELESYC
Assay: FACS binding assay
Conditions: competition with 20 nM GIP-057, 4° C., 1 hour; for IC50: read-out: pIC50 Category (converted)
Method in brief: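 CHO-K1 cells stably expressing human GIPR were detached with Accutase, suspended at 500.000 cells per mL in PBS with 1% FCS, and washed ice-cold. Bound peptide was detected with 1 μg/mL APC-streptavidin for 30 min on ice.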

Row | Structure (SMILES) | pIC50 Category | IC50
1 | CC[C@H](C)[C@@H]1NC(=O)[C@H](CC(C)C)NC(=O)C2(CCN(C(=O)CN3CCN4CCN5CCN(CC3)CC(=O)[O][Lu]([O]C(=O)C5)[O]C(=O)C4)CC2)NC(=O)[C@@H](NC(=O)[C@@H](CC(C)C)NC(=O)[C@H](CCC(=O)O)NC(=O)[C@@H]2C[C@@H](N)CN2C(=O)[C@H](Cc2c[nH]c3ccc(Cl)cc23)NC(=O)[C@H](Cc2c[nH]c3ccccc23)NC(=O)[C@H](CC(=O)O)NC(=O)CCCC(=O)NC[C@H](O)[C@@H](O)[C@H](O)[C@H](O)CO)CSCc2cccc(n2)CSC[C@@H](C(=O)NC2CCN(CC(=O)N[C@H](CCC(=O)NC[C@H](O)[C@@H](O)[C@H](O)[C@H](O)CO)C(N)=O)CC2)NC1=O [GIP-067, AGLU-Glutar-Asp-Trp-5Clw-Tap-Glu-leu-[Cys(2Lut)-Apc(LuDOTA)-Leu-Ile-Cys]-APAc-glu(AGLU)-NH2] ({NH(1-deoxy-D-glucityl)-Glutaryl}-DW[Trp(5-Cl)][Pro(4R-NH2)]E[dL]C[Api](DOTA(Lu))LIC[X1][dE](NH(1-deoxy-D-glucityl))-NH2; linker 7-11 via Pyridine(2,6-diCH2)) | A (pIC50 values>8.0) | 
2 | CC[C@H](C)[C@@H]1NC(=O)[C@H](CC(C)C)NC(=O)C2(CCN(C(=O)CN3CCN4CCN5CCN(CC3)CC(=O)[O][Ga]([O]C(=O)C5)[O]C(=O)C4)CC2)NC(=O)[C@@H](NC(=O)[C@@H](CC(C)C)NC(=O)[C@H](CCC(=O)O)NC(=O)[C@@H]2C[C@@H](O)CN2C(=O)[C@H](Cc2c[nH]c3ccc(Cl)cc23)NC(=O)[C@H](Cc2c[nH]c3ccccc23)NC(=O)[C@H](CC(=O)O)NC(=O)CCCC(=O)NC[C@H](O)[C@@H](O)[C@H](O)[C@H](O)CO)CSCc2cccc(n2)CSC[C@@H](C(=O)NC2CCN(CC(=O)N[C@H](CCC(=O)NC[C@H](O)[C@@H](O)[C@H](O)[C@H](O)CO)C(N)=O)CC2)NC1=O [GIP-070, AGLU-Glutar-Asp-Trp-5Clw-Hyp-Glu-leu-[Cys(2Lut)-Apc(GaDOTA)-Leu-Ile-Cys]-APAc-glu(AGLU)-NH2] ({NH(1-deoxy-D-glucityl)-Glutaryl}-DW[Trp(5-Cl)][Hyp]E[dL]C[Api](DOTA(Ga))LIC[X1][dE](NH(1-deoxy-D-glucityl))-NH2; linker 7-11 via Pyridine(2,6-diCH2)) |  | < 10 nM
3 | CC[C@H](C)[C@@H]1NC(=O)[C@H](CC(C)C)NC(=O)C2(CCN(C(=O)CCCC(=O)NC[C@H](O)[C@@H](O)[C@H](O)[C@H](O)CO)CC2)NC(=O)[C@@H](NC(=O)[C@@H](CC(C)C)NC(=O)[C@H](CCC(=O)O)NC(=O)[C@@H]2C[C@@H](O)CN2C(=O)[C@H](Cc2c[nH]c3ccc(Cl)cc23)NC(=O)[C@H](Cc2c[nH]c3ccccc23)NC(=O)CCC(=O)O)CSCc2cccc(n2)CSC[C@@H](C(=O)NC2CCN(CC(=O)N[C@@H](CCCCNC(=O)CN3CCN(CC(=O)O)CCN(CC(=O)O)CCN(CC(=O)O)CC3)C(N)=O)CC2)NC1=O [GIP-073, HO-Succinyl-Trp-5Clw-Hyp-Glu-leu-[Cys(2Lut)-Apc(AGLU-Glutar)-Leu-Ile-Cys]-APAc-Lys(DOTA)-NH2] (Suc-W[Trp(5-Cl)][Hyp]E[dL]C[Api]([Glutaryl-NH(1-deoxy-D-glucityl)])LIC[X1]K(DOTA)-NH2; linker 6-10 via Pyridine(2,6-diCH2)) |  | < 10 nM
4 | CC[C@H](C)[C@@H]1NC(=O)[C@H](CC(C)C)NC(=O)C(C)(C)NC(=O)[C@@H](NC(=O)[C@H](CC(C)C)NC(=O)[C@H](CCC(=O)O)NC(=O)[C@@H]2CCCN2C(=O)[C@H](Cc2cccc3ccccc23)NC(=O)[C@H](Cc2c[nH]c3ccccc23)NC(=O)[C@H](CC(=O)O)NC(C)=O)CSCc2cccc(c2)CSC[C@@H](C(=O)NCCCOCCOCCOCCCNC(=O)CCC(=O)N[C@@H](CCCCNC(=O)CN2CCN(CC(=O)O)CCN(CC(=O)O)CCN(CC(=O)O)CC2)C(N)=O)NC1=O [GIP-074, Ac-Asp-Trp-1Ni-Pro-Glu-Leu-[Cys(3MeBn)-Aib-Leu-Ile-Cys]-Ttds-Lys(DOTA)-NH2] (Ac-DW[1Nal]PELC[Aib]LIC-X5; linker 7-11 via mXylylene) |  | < 10 nM
5 | CC[C@H](C)[C@@H]1NC(=O)[C@H](CC(C)C)NC(=O)C(C)(C)NC(=O)[C@@H](NC(=O)[C@H](CC(C)C)NC(=O)[C@H](CCC(=O)O)NC(=O)[C@@H]2CCCN2C(=O)[C@H](Cc2csc3ccccc23)NC(=O)[C@H](Cc2c[nH]c3ccccc23)NC(=O)[C@H](CC(=O)O)NC(C)=O)CSCc2cccc(c2)CSC[C@@H](C(=O)NCCCOCCOCCOCCCNC(=O)CCC(=O)N[C@@H](CCCCNC(=O)CN2CCN(CC(=O)O)CCN(CC(=O)O)CCN(CC(=O)O)CC2)C(N)=O)NC1=O [GIP-075, Ac-Asp-Trp-Bta-Pro-Glu-Leu-[Cys(3MeBn)-Aib-Leu-Ile-Cys]-Ttds-Lys(DOTA)-NH2] (Ac-DW[Bta]PELC[Aib]LIC-X5; linker 7-11 via mXylylene) |  | < 10 nM
